Patent US8546113B2, “Hydrogen peroxide-forming NADH oxidase and DNA encoding the same” (Keio University, priority 2008, dated 2013)

What was measured:
[1] = tested on: NADH oxidase isolated from Brevibacterium sp.; test: Substrates and activity levels in the presence of cofactors; format: biochemical, Brevibacterium sp. KU1309
Description: (§1) Enzyme activity was evaluated by measuring the absorbance at 340 nm, which decreases as a result of oxidization of NADH to NAD^+, with the use of an absorptiometer. A reaction was induced by adding an enzyme solution to a mixture of 0.1 mM NADH, 100 mM Tris-HCL (pH 8.8), and 500 mM ammonium sulfate. Herein, “1 unit” is defined as the amount of an enzyme that allows oxidation of 1μ mole of NADH per minute.

[2] = tested on: NADH oxidase isolated from Brevibacterium sp.; test: Effects of salts on enzyme activity; format: biochemical, Brevibacterium sp. KU1309
Description: Reaction was carried out with the addition of different salts, followed by determination of absorbance at 340 nm. Then, the reaction rate was determined. […] Then, the effects of ammonium salt concentration upon enzyme activity were examined in the manner described below. The reaction was carried out in the presence of ammonium sulfate at a concentration of 0 M to 4.35 M. Thereafter, the relative value of the reaction rate was calculated.

[3] = tested on: NADH oxidase isolated from Brevibacterium sp.; conditions: inhibitor 1 mM, 3 minutes at room temperature; NADH 10 μM; (NH4)2SO4 500 mM; Tris-HCl pH 8.8; not stated whether % inhibition or % relative activity
Description: The enzyme solution was added to 100 mM Tris-HCl (pH 8.8). Further, an inhibitor was added thereto to a final concentration of 1 mM, followed by incubation at room temperature for 3 minutes. Then, NADH and (NH4)2SO4 were added thereto so as to result in concentrations of 10 μM and 500 mM, respectively, followed by determination of the absorbance at 340 nm. Accordingly, the reaction rate was determined.

[4] = tested on: NADH oxidase isolated from Brevibacterium sp.; test: Kinetic analysis of NADH oxidation (Lineweaver-Burk plot, absorbance at 340 nm); format: biochemical, Brevibacterium sp. KU1309; conditions: for Km: NOX 0.28 ug/ml
Description: as §1
For kinetic analysis, the reaction rate was determined at an NADH concentration of 10 μM to 100 μM. A Lineweaver-Burk plot was created based on the obtained values. The reaction was carried out as described below. A reaction solution (NOX: 0.28 ug/ml; NADH: 10 μM to 100 μM; (NH4)2SO4: 500 mM; and Tris-HCl: 100 mM (pH 8.8)) was introduced into an absorptiometer cell, followed by determination of the absorbance at 340 nm. Accordingly, the reaction rate was determined.

[5] = tested on: NADH oxidase isolated from Brevibacterium sp.; test: H2O2 formation confirmation and quantification (o-dianisidine/peroxidase, Abs460); format: biochemical, Brevibacterium sp. KU1309; conditions: NADH 75, 100 and 150 μM
Description: NOX is classified into the H2O by-product type and the H2O2 by-product type. With the use of the assay method shown in FIG. 8A, H2O2 formation confirmation and H2O2 quantification were carried out. First, the reaction was carried out with the use of hydrogen peroxide, o-dianisidine, and peroxidase at known concentrations. The standard curve of [H2O2] vs Abs460 was created. The symbol “♦” denotes each obtained plotted point on the curve in FIG. 8B. […] The reaction was completed after the elapse of a sufficient reaction time. The completion of the reaction was confirmed with the use of an absorptiometer. The obtained reaction solution (50 μl) was added to a 100 mM phosphate buffer (pH 7.0) containing o-dianisidine and peroxidase, followed by absorbance determination. The symbol “□” denotes each obtained plotted point on the curve in FIG. 8B. […] It is understood that the values were identical to the relevant [H2O2] concentrations.

[6] = substrate NADH, cofactor added at 1 mM
[7] = NADH 10 μM to 100 μM, (NH4)2SO4 500 mM, Tris-HCl 100 mM (pH 8.8)
[8] = as substrate, no cofactor added, NADH without cofactor = 100

Molecule: Cc1cc2nc3c(=O)[nH]c(=O)nc-3n(C[C@H](O)[C@H](O)[C@H](O)COP(=O)(O)OP(=O)(O)OC[C@H]3O[C@@H](n4cnc5c(N)ncnc54)[C@H](O)[C@@H]3O)c2cc1C [FAD]
- activation caused by FAD or FMN [1]: not observed
- Specific activity (%) [1, 6]: 101%

Molecule: N.N.O=S(=O)(O)O [ammonium salt, ammonium sulfate]
- effect of addition of salt on enzyme activity [2]: increases
- ammonium salt concentration ([NH4+]) at maximum activity ([2]; ammonium sulfate 0 M to 4.35 M): 3.0 M

Molecule: [Cu+2] [Cu^2+]
- activity inhibited (FIG. 6 relative activity values) [3]: 42%

Molecule: Cc1cc2nc3c(=O)[nH]c(=O)nc-3n(C[C@H](O)[C@H](O)[C@H](O)COP(=O)(O)O)c2cc1C [FMN]
- activation caused by FAD or FMN [1]: not observed
- Specific activity (%) [1, 6]: 104%

Molecule: reduced nicotinamide adenine dinucleotide [NADH]
- Kcat ([4]; Calculated with a molecular weight of 101.68 kDa): 15.01 s⁻¹
- Vmax [4, 7]: 8.86 Unit/mq
- Km [4, 7]: 22 µM
- Specific activity (%) [1, 8]: 100%
- hydrogen peroxide formed on oxidization of 1 mol of NADH [5]: 1 mol

Molecule: [Zn+2] [Zn^2+]
- activity inhibited (FIG. 6 relative activity values) [3]: 39%

Molecule: NC(=O)C1=CN([C@@H]2O[C@H](COP(=O)(O)OP(=O)(O)OC[C@H]3O[C@@H](n4cnc5c(N)ncnc54)[C@H](OP(=O)(O)O)[C@@H]3O)[C@@H](O)[C@H]2O)C=CC1 [NADPH]
- degree of NADPH-oxidizing activity [1]: low
- Specific activity (%) [1, 8]: 2%

Molecule: [Ag+] [Ag^+]
- activity inhibited (FIG. 6 relative activity values) [3]: 37%

B1: enzyme of the present invention: hydrogen peroxide-forming NADH oxidase from Brevibacterium sp. KU1309, homodimer, amino acid sequence of SEQ ID NO: 18 (protein, listed as Brevibacterium sp.)
chain: VSDELTYDLVVLGGGTGGYAAALRAAELDMKVALIERDKVGGTCLHRGCVPTKALLHAAEVAETAKNSETFGIEAELQGIDIAKVLEYKDGVITRNYKGLQGLVKARGIDTYFGTGKLVGKDTVEVTGEDGNHTVKGTNVLLSTGSTSKTIGLEVTDRVITSTEALQLDKVPSSAIVLGGGVIGVEFASVWNSFGAEVTIVEGLKHLVANEDETISKNLERAFKKRKIKFKLGVMFKGVEETADGVKVTLEDGSTLEAEYLLVAVGRGPVTEGFGFEEQGIPMDRGFVLASERLHTGVGNIYACGDIVPGLQLAHRAFGQGIFIAEEIAGLNPAPVVESGIPRVTYCEPEIFSVGLSSAQAEEKYGKDQVESLEYNLGGNGKSVILNTTGLIKVIREKDGPVVGVHGIGARLSEQAGEAQLIVNWEAFPEEVAQLIHAHPTQNEALGEAHLALAGKPLHFHS
modifications: homodimer
- Km [4, 7]: 22 µM
- hydrogen peroxide formed on oxidization of 1 mol of NADH [5]: 1 mol
